Tests used:
[1] = biological target: T1, LpxF (HP1580) (Helicobacter pylori, UniProt O26100); assay: phosphate release, malachite green; type: biochemical; conditions: 50 uM substrate, 0.2% DDM, pH 7.4, 37 °C; very low activity
T1 construct: gene HP_1580

[2] = biological target: LpxE (HP0021) (Helicobacter pylori, UniProt O24866); assay: phosphate release, malachite green; type: biochemical; conditions: 50 uM substrate, 0.2% DDM, pH 7.4, 37 °C
Sequence of LpxE (HP0021) (O24866 whole entry): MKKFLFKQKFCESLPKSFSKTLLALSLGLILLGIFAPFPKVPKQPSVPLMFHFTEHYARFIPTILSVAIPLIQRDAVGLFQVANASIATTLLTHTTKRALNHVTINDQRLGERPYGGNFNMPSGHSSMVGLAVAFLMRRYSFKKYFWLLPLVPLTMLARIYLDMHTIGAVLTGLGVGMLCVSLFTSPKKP

T1 sequence (O26100 entry or part of it): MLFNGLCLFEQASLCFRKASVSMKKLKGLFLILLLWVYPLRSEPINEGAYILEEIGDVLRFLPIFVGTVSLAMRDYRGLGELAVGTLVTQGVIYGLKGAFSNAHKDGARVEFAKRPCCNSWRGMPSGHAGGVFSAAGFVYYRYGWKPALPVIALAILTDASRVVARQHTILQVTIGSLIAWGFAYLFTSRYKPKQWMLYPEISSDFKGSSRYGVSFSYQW

Structure (SMILES): CC(C)=CCC/C(C)=C/CC/C(C)=C/COP(=O)(O)OP(=O)(O)O [C15-PP]
- phosphate release, malachite green [1]: LpxF only showed very low activity towards C15-PP and PGP
- phosphate release, malachite green [2]: LpxE had similar substrate specificity as HupA, except for C5-PP
